The text below walks through data of US20240150289A1, “CRYSTALLINE CARBAZOLE DERIVATIVE” (Raziel Therapeutics Ltd., priority 2021, published 2024).

Series [1] can be described thus: Accelerated stability tests of crystalline Compound A Form 1 (storage, HPLC purity and XRPD). Type of series: physicochemical. The following applies: 7 days; for Purity: HPLC. As to the method:
(§1) XRPD analysis was carried out on a PANalytical X'pert Pro with PIXcel detector (128 channels), scanning the samples between 3 and 35° 2θ. The material was gently ground (where required) to release any agglomerates and loaded onto a multi-well plate with Kapton or Mylar polymer film to support the sample. The multi-well plate was then placed into the diffractometer and analyzed using Cu K radiation (α1 λ=1.54060 Å; α2 λ=1.54443 Å; β=1.39225 Å; α1:α2 ratio=0.5) running in transmission mode (step size 0.0130° 2θ, step time 18.87s) using 40 kV/40 mA generator settings. Data were visualized and images generated using the HighScore Plus 4.7 desktop application (PANalytical, 2017). Crystalline Compound A Form 1 was not changed after storage at room temperature for 7 days, storage at 40° C./75% RH for 7 days, or storage at 80° C. for 7 days. Purity was determined by HPLC analysis.

Series [2] is described as follows: Long-term stability tests of crystalline Compound A Form 1 (storage, HPLC purity and XRPD). The following applies: for Purity: HPLC. Type of series: physicochemical. As to the method: as §1, with “25° C/60%RH” for “room temperature”, “36 months or” for “7 days,”, “C/75%RH” for “C./75% RH”, “6 months.” for “7 days, or storage at 80° C. for 7 days.”
Where [3] appears, read: 25° C./60% RH (closed container), 3 months.
Setting [4] is: 25° C./60% RH (closed container), 6 months.
[5] abbreviates: 25° C./60% RH (closed container), 12 months.
Setting [6] is: 25° C./60% RH (closed container), 24 months.
[7] abbreviates: 25° C./60% RH (closed container), 36 months.
Setting [8] is: 40° C./75% RH (closed container), 1 month.
Setting [9] is: 40° C./75% RH (closed container), 3 months.
[10] abbreviates: 40° C./75% RH (closed container), 6 months.

Entries after “also recorded” stand apart in the source; their conditions may differ.

With `C[N+](C)(C)CCCCCn1c2ccc(Br)cc2c2cc(Br)ccc21.[Cl-]` [Compound A Form 1, 5-(3,6-dibromo-9H-carbazol-9-yl)-N,N,N-trimethylpentan-1-aminium chloride Form 1], the XRPD entry in series [1] (40° C./75% RH (open vial)) was “not changed; also recorded: Unchanged”; in series [1] (80° C. (closed vial)), “not changed; also recorded: Unchanged”; in series [1] (Room Temperature (open vial)), “not changed; also recorded: Unchanged”; in series [2] (setting [3]) it was “Unchanged”; in series [2] (setting [4]), “Unchanged”; in series [2] (setting [5]) it was “Unchanged”. The XRPD entry in series [2] (setting [6]) is listed as “Unchanged”; in series [2] (setting [7]) it was “not changed; also recorded: Unchanged”; in series [2] (setting [8]), “Unchanged”; in series [2] (setting [9]), “Unchanged”; in series [2] (setting [10]), “not changed; also recorded: Unchanged”. Further, the Purity in series [1] (40° C./75% RH (open vial)) is 99.93%; in series [1] (80° C. (closed vial)), 99.93%; in series [1] (Room Temperature (open vial)) it was 99.93%; in series [2] (setting [3]), 99.7%; in series [2] (setting [4]), 99.7%; in series [2] (setting [5]) it was 99.7%. The Purity in series [2] (setting [6]) was 99.7%; in series [2] (setting [7]) it was 99.7%; in series [2] (setting [8]), 99.7%; in series [2] (setting [9]) it was 99.7%; in series [2] (setting [10]), 99.8%.
